# Data from publication PMC3399817 (PLoS ONE, 2012).
# What was measured:
# Experiment in all cases: KINOMEscan
# Assay type in all cases: binding
# FLT1 = molecular target: T1, FLT1 (Homo sapiens, UniProt P17948); details: FLT1, 1 uM
# T1 construct: purchased Ambit KINOMEscan (DiscoverX)
# Method in brief: (§1)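 Kinases were scored for inhibited substrate binding in the presence of 1 μM compound; this served as the first-pass selectivity screen.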
# SBK1 = molecular target: T2, SBK1 (Homo sapiens, UniProt Q52WX2); details: SBK1, 1 uM
# T2 construct: purchased Ambit KINOMEscan (DiscoverX)
# T2 sequence (Q52WX2 whole entry): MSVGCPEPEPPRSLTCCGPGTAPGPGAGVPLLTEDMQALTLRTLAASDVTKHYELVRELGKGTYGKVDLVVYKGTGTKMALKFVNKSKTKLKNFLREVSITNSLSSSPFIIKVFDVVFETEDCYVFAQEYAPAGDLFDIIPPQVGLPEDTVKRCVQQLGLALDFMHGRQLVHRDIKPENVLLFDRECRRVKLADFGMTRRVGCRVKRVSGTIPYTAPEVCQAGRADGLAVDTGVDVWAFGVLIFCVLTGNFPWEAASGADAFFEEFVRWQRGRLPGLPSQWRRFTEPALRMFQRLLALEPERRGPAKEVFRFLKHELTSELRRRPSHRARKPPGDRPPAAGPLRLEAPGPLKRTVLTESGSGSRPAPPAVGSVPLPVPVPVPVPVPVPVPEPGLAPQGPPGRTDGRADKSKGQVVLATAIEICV
# Method in brief: as §1
# CSNK1G1 = molecular target: T3, CSNK1G1 (Homo sapiens, UniProt Q9HCP0); details: CSNK1G1, 1 uM
# T3 construct: purchased Ambit KINOMEscan (DiscoverX)
# Method in brief: as §1
# ERK3 = molecular target: T4, ERK3 (Homo sapiens, UniProt Q16659); details: ERK3, 1 uM
# T4 construct: purchased Ambit KINOMEscan (DiscoverX)
# Method in brief: as §1
# BRSK1 = molecular target: T5, BRSK1 (Homo sapiens, UniProt Q8TDC3); details: BRSK1, 1 uM
# T5 construct: purchased Ambit KINOMEscan (DiscoverX)
# Method in brief: as §1
# MET = molecular target: T6, MET (Homo sapiens, UniProt P08581); details: 1 uM
# T6 construct: purchased Ambit KINOMEscan (DiscoverX)
# Method in brief: as §1
# MAP3K3 = molecular target: T7, MAP3K3 (Homo sapiens, UniProt Q99759); details: MAP3K3, 1 uM
# T7 construct: purchased Ambit KINOMEscan (DiscoverX)
# T7 sequence (Q99759 whole entry): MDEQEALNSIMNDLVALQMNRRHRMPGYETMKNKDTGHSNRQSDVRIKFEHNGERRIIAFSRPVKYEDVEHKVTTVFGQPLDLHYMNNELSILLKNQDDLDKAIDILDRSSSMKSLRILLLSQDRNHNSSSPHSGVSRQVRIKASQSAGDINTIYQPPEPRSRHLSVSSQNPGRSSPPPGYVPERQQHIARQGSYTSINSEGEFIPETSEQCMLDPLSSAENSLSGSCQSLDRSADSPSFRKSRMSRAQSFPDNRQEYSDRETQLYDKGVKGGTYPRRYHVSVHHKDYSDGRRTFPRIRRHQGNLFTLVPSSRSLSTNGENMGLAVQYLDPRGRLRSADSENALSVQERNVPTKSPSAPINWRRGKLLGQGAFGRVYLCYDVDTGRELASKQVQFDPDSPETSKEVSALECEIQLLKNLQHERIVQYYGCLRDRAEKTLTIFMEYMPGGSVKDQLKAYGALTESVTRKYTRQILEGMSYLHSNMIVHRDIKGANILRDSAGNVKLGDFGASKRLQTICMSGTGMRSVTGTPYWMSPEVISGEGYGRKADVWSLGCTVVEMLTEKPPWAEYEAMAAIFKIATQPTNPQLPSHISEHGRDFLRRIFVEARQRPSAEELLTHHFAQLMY
# Method in brief: as §1
# KIT = molecular target: T8, KIT (Homo sapiens, UniProt P10721); details: 1 uM
# T8 construct: purchased Ambit KINOMEscan (DiscoverX)
# Method in brief: as §1
# MAP4K5 = molecular target: T9, MAP4K5 (Homo sapiens, UniProt Q9Y4K4); details: MAP4K5, 1 uM
# T9 construct: purchased Ambit KINOMEscan (DiscoverX)
# T9 sequence (Q9Y4K4 whole entry): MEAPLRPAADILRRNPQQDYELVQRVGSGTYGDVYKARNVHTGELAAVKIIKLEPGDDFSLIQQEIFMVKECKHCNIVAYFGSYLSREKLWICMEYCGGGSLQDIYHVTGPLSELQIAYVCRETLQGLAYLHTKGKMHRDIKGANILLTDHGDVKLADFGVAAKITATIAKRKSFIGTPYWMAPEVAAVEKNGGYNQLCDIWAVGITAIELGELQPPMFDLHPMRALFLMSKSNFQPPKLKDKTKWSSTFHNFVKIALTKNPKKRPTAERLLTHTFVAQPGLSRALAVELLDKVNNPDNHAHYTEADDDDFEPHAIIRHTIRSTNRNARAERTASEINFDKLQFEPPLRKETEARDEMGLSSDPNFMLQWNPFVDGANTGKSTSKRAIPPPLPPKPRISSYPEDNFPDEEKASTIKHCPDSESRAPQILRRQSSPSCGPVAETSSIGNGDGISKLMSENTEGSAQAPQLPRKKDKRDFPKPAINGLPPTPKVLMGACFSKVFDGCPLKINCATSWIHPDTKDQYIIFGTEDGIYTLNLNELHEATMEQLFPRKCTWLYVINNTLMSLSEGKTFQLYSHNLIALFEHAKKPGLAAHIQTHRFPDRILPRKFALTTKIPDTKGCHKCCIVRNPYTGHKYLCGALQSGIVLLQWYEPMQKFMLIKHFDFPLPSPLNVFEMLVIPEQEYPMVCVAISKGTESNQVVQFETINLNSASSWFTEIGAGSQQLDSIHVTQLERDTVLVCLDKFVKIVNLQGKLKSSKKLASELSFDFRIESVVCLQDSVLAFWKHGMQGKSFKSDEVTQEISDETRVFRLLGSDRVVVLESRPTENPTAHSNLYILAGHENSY
# Method in brief: as §1
# EPHA5 = molecular target: T10, EPHA5 (Homo sapiens, UniProt P54756); details: EPHA5, 1 uM
# T10 construct: purchased Ambit KINOMEscan (DiscoverX)
# Method in brief: as §1
# PCTK3 = molecular target: T11, PCTK3 (Homo sapiens, UniProt Q07002); details: PCTK3, 1 uM
# T11 construct: purchased Ambit KINOMEscan (DiscoverX)
# Method in brief: as §1
# [1] = molecular target: T12, RPS6KA6(Kin.Dom.2-C-terminal) (Homo sapiens, UniProt Q9UK32); details: 1 uM
# T12 construct: RPS6KA6(Kin.Dom.2-C-terminal); purchased Ambit KINOMEscan (DiscoverX)
# T12 sequence (Q9UK32 401-745 limits assumed): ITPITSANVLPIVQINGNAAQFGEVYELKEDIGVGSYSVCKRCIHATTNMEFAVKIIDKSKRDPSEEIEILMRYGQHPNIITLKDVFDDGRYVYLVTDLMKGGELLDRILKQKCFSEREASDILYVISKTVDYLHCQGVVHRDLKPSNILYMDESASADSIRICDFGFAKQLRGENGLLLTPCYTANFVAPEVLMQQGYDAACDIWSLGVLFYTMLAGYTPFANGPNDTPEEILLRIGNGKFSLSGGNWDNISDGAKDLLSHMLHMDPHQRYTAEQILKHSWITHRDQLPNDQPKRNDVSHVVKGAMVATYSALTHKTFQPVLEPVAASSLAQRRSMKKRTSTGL
# Method in brief: as §1
# CLK2 = molecular target: T13, CLK2 (Homo sapiens, UniProt P49760); details: CLK2, 1 uM
# T13 construct: purchased Ambit KINOMEscan (DiscoverX)
# Method in brief: as §1
# PRKD3 = molecular target: T14, PRKD3 (Homo sapiens, UniProt O94806); details: PRKD3, 1 uM
# T14 construct: purchased Ambit KINOMEscan (DiscoverX)
# Method in brief: as §1
# PIK3CA(H1047Y) = molecular target: T15, PIK3CA(H1047Y) (Homo sapiens, UniProt P42336, H1047Y); details: 1 uM
# T15 construct: purchased Ambit KINOMEscan (DiscoverX)
# T15 sequence (P42336 whole entry H1047Y): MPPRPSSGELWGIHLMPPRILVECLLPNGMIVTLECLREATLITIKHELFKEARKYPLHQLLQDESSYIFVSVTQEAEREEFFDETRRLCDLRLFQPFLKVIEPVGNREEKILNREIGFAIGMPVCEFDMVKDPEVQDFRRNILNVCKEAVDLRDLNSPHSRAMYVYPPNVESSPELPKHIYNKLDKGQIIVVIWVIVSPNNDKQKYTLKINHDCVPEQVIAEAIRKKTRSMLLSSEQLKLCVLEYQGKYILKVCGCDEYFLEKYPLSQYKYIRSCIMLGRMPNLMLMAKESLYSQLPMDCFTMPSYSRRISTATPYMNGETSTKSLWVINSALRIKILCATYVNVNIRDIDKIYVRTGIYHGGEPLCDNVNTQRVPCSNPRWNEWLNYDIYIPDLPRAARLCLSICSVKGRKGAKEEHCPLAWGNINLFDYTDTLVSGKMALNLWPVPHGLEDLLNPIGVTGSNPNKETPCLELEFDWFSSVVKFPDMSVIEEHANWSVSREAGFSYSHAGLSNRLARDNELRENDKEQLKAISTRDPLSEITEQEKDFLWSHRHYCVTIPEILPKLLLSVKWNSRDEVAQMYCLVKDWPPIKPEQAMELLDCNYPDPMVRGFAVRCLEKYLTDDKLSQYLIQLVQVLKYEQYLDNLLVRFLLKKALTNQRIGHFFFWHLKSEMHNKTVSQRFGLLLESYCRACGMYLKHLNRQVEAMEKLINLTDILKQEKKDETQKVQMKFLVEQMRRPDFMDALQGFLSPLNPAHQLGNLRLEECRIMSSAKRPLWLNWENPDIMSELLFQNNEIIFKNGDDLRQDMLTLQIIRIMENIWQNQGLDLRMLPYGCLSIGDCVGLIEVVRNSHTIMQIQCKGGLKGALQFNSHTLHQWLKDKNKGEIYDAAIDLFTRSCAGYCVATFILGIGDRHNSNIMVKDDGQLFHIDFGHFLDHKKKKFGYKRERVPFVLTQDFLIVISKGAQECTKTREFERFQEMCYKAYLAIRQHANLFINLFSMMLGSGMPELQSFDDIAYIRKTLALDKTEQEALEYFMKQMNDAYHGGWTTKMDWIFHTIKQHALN
# Method in brief: as §1
# SRPK2 = molecular target: T16, SRPK2 (Homo sapiens, UniProt P78362); details: SRPK2, 1 uM
# T16 construct: purchased Ambit KINOMEscan (DiscoverX)
# Method in brief: as §1
# YANK2 = molecular target: T17, YANK2 (Homo sapiens, UniProt Q9NY57); details: YANK2, 1 uM
# T17 construct: purchased Ambit KINOMEscan (DiscoverX)
# Method in brief: as §1
# CSNK1A1 = molecular target: T18, CSNK1A1 (Homo sapiens, UniProt P48729); details: CSNK1A1, 1 uM
# T18 construct: purchased Ambit KINOMEscan (DiscoverX)
# Method in brief: as §1
# KIT(D816V) = molecular target: T19, KIT(D816V) (Homo sapiens, UniProt P10721, D816V); details: 1 uM
# T19 construct: purchased Ambit KINOMEscan (DiscoverX)
# Method in brief: as §1
# FLT4 = molecular target: T20, FLT4 (Homo sapiens, UniProt P35916); details: FLT4, 1 uM
# T20 construct: purchased Ambit KINOMEscan (DiscoverX)
# Method in brief: as §1
# LATS1 = molecular target: T21, LATS1 (Homo sapiens, UniProt O95835); details: LATS1, 1 uM
# T21 construct: purchased Ambit KINOMEscan (DiscoverX)
# Method in brief: as §1
# ERBB3 = molecular target: T22, ERBB3 (Homo sapiens, UniProt P21860); details: ERBB3, 1 uM
# T22 construct: purchased Ambit KINOMEscan (DiscoverX)
# Method in brief: as §1
# BMPR1A = molecular target: T23, BMPR1A (Homo sapiens, UniProt P36894); details: 1 uM
# T23 construct: purchased Ambit KINOMEscan (DiscoverX)
# Method in brief: as §1
# ROS1 = molecular target: T24, ROS1 (Homo sapiens, UniProt P08922); details: ROS1, 1 uM
# T24 construct: purchased Ambit KINOMEscan (DiscoverX)
# Method in brief: as §1
# PHKG1 = molecular target: T25, PHKG1 (Homo sapiens, UniProt Q16816); details: PHKG1, 1 uM
# T25 construct: purchased Ambit KINOMEscan (DiscoverX)
# Method in brief: as §1
# CTK = molecular target: T26, CTK (Homo sapiens, UniProt P42679); details: 1 uM
# T26 construct: purchased Ambit KINOMEscan (DiscoverX)
# Method in brief: as §1
# [2] = molecular target: T27, RPS6KA4(Kin.Dom.1-N-terminal) (Homo sapiens, UniProt O75676); details: 1 uM
# T27 construct: RPS6KA4(Kin.Dom.1-N-terminal); purchased Ambit KINOMEscan (DiscoverX)
# Method in brief: as §1
# IRAK1 = molecular target: T28, IRAK1 (Homo sapiens, UniProt P51617); details: IRAK1, 1 uM
# T28 construct: purchased Ambit KINOMEscan (DiscoverX)
# Method in brief: as §1
# DDR2 = molecular target: T29, DDR2 (Homo sapiens, UniProt Q16832); details: DDR2, 1 uM
# T29 construct: purchased Ambit KINOMEscan (DiscoverX)
# Method in brief: as §1
# PAK6 = molecular target: T30, PAK6 (Homo sapiens, UniProt Q9NQU5); details: PAK6, 1 uM
# T30 construct: purchased Ambit KINOMEscan (DiscoverX)
# Method in brief: as §1
# DAPK1 = molecular target: T31, DAPK1 (Homo sapiens, UniProt P53355); details: DAPK1, 1 uM
# T31 construct: purchased Ambit KINOMEscan (DiscoverX)
# Method in brief: as §1
# [3] = molecular target: T32, JAK1(JH1domain-catalytic) (Homo sapiens, UniProt P23458); details: 1 uM
# T32 construct: JAK1(JH1domain-catalytic); purchased Ambit KINOMEscan (DiscoverX)
# T32 sequence (P23458 875-1154 limits assumed): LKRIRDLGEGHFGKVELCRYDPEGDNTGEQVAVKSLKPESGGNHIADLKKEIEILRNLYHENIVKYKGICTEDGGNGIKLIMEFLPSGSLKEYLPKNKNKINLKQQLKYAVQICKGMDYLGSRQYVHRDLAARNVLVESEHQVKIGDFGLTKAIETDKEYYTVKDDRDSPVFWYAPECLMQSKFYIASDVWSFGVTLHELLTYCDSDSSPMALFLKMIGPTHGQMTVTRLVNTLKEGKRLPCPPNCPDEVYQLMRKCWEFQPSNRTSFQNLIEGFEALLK
# Method in brief: as §1
# MET(Y1235D) = molecular target: T33, MET(Y1235D) (Homo sapiens, UniProt P08581, Y1235D); details: 1 uM
# T33 construct: purchased Ambit KINOMEscan (DiscoverX)
# T33 sequence (P08581 25-1390 Y1235D): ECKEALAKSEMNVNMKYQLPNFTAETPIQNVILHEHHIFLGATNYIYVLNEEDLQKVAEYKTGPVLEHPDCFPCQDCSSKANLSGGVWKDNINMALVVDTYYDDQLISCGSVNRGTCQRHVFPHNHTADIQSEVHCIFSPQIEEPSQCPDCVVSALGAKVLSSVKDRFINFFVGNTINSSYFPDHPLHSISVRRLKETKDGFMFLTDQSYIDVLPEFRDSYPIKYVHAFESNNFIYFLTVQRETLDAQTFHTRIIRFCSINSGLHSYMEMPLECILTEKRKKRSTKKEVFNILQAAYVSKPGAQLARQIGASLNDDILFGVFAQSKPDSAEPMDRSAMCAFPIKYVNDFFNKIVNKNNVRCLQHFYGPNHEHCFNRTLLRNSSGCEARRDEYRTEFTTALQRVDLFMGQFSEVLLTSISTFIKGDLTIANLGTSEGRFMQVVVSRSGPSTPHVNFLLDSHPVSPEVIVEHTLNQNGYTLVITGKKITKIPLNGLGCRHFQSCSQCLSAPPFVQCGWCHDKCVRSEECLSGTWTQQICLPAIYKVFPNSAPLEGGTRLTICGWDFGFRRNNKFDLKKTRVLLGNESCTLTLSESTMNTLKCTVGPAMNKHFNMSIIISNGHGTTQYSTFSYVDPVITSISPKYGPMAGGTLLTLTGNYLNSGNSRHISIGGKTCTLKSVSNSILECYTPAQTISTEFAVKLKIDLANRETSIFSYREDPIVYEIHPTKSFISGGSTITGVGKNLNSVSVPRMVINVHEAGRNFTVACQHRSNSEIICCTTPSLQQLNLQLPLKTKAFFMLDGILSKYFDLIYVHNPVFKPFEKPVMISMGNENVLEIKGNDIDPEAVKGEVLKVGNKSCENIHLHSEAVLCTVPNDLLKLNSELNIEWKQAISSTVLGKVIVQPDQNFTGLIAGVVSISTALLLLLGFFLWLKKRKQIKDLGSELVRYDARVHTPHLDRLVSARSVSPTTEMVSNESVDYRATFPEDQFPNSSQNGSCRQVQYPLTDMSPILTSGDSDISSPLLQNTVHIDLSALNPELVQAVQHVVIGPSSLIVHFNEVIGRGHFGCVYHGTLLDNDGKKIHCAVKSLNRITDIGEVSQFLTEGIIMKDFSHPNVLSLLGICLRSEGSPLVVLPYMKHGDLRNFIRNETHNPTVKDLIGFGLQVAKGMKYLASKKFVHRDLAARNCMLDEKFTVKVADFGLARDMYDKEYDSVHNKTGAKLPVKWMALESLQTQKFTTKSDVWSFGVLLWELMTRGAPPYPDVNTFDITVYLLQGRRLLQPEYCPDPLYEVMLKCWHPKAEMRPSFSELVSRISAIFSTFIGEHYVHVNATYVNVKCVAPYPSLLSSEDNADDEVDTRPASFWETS
# Method in brief: as §1
# [4] = molecular target: T34, RPS6KA1(Kin.Dom.1-N-terminal) (Homo sapiens, UniProt Q15418); details: 1 uM
# T34 construct: RPS6KA1(Kin.Dom.1-N-terminal); purchased Ambit KINOMEscan (DiscoverX)
# Method in brief: as §1
# FYN = molecular target: T35, FYN (Homo sapiens, UniProt P06241); details: 1 uM
# T35 construct: purchased Ambit KINOMEscan (DiscoverX)
# Method in brief: as §1
# MELK = molecular target: T36, MELK (Homo sapiens, UniProt Q14680); details: 1 uM
# T36 construct: purchased Ambit KINOMEscan (DiscoverX)
# Method in brief: as §1
# PAK7 = molecular target: T37, PAK7 (Homo sapiens, UniProt Q9P286); details: PAK7, 1 uM
# T37 construct: purchased Ambit KINOMEscan (DiscoverX)
# Method in brief: as §1
Structure (SMILES),% binding compared to no inhibitor control (FLT1) [%],% binding compared to no inhibitor control (SBK1) [%],% binding compared to no inhibitor control (CSNK1G1) [%],% binding compared to no inhibitor control (ERK3) [%],% binding compared to no inhibitor control (BRSK1) [%],% binding compared to no inhibitor control (MET) [%],% binding compared to no inhibitor control (MAP3K3) [%],% binding compared to no inhibitor control (KIT) [%],% binding compared to no inhibitor control (MAP4K5) [%],% binding compared to no inhibitor control (EPHA5) [%],% binding compared to no inhibitor control (PCTK3) [%],% binding compared to no inhibitor control [1] [%],% binding compared to no inhibitor control (CLK2) [%],% binding compared to no inhibitor control (PRKD3) [%],% binding compared to no inhibitor control (PIK3CA(H1047Y)) [%],% binding compared to no inhibitor control (SRPK2) [%],% binding compared to no inhibitor control (YANK2) [%],% binding compared to no inhibitor control (CSNK1A1) [%],% binding compared to no inhibitor control (KIT(D816V)) [%],% binding compared to no inhibitor control (FLT4) [%],further results
COc1ccccc1Nc1nc(-c2ccc(OC)c(OC)c2)cc2nccn12 [BAY derivative 6],100,100,94,88,100,100,85,60,100,100,100,93,63,100,100,90,100,100,22,86,% binding compared to no inhibitor control (LATS1): 100%; % binding compared to no inhibitor control (ERBB3): 87%; % binding compared to no inhibitor control (BMPR1A): 100%; % binding compared to no inhibitor control (ROS1): 36%; % binding compared to no inhibitor control (PHKG1): 100%; % binding compared to no inhibitor control (CTK): 98%; % binding compared to no inhibitor control [2]: 74%; % binding compared to no inhibitor control (IRAK1): 92%; % binding compared to no inhibitor control (DDR2): 100%; % binding compared to no inhibitor control (PAK6): 99%; % binding compared to no inhibitor control (DAPK1): 76%; % binding compared to no inhibitor control [3]: 48%; % binding compared to no inhibitor control (MET(Y1235D)): 100%; % binding compared to no inhibitor control [4]: 82%; % binding compared to no inhibitor control (FYN): 61%; % binding compared to no inhibitor control (MELK): 91%; % binding compared to no inhibitor control (PAK7): 98%
"COc1ccc(-c2cc3nccn3c(Nc3ncccc3C(N)=O)n2)cc1OC.Cl.Cl [BAY61-3606, 2-[7-(3,4-dimethoxyphenyl)-imidazo [1,2-c]pyrimidin-5-ylamino] nicotinamide dihydrochloride, reference compound]",100,96,84,73,82,100,97,8.4,80,77,92,79,12,37,80,53,86,100,4.7,100,% binding compared to no inhibitor control (LATS1): 100%; % binding compared to no inhibitor control (ERBB3): 100%; % binding compared to no inhibitor control (BMPR1A): 79%; % binding compared to no inhibitor control (ROS1): 45%; % binding compared to no inhibitor control (PHKG1): 79%; % binding compared to no inhibitor control (CTK): 44%; % binding compared to no inhibitor control [2]: 32%; % binding compared to no inhibitor control (IRAK1): 8%; % binding compared to no inhibitor control (DDR2): 74%; % binding compared to no inhibitor control (PAK6): 65%; % binding compared to no inhibitor control (DAPK1): 66%; % binding compared to no inhibitor control [3]: 71%; % binding compared to no inhibitor control (MET(Y1235D)): 100%; % binding compared to no inhibitor control [4]: 96%; % binding compared to no inhibitor control (FYN): 100%; % binding compared to no inhibitor control (MELK): 87%; % binding compared to no inhibitor control (PAK7): 72%
